Experimental data published in PubChem BioAssay (NCI).
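Values below derive from 48-hour exposures of cells grown in 96-well plates, with endpoints linearly interpolated between the two concentrations bracketing the appropriate inhibition level. TGI: concentration producing complete growth inhibition.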

Key:
Assay in all cases: NCI tumour cell line growth inhibition, 48 h
SF-295 CNS = system: SF-295 CNS
COLO 205 colon = system: COLO 205 colon
TK-10 renal = system: TK-10 renal
MDA-N = system: MDA-N
SK-OV-3 ovarian = system: SK-OV-3 ovarian
U251 CNS = system: U251 CNS
SK-MEL-5 melanoma = system: SK-MEL-5 melanoma
UACC-62 melanoma = system: UACC-62 melanoma
EKVX NSCLC = system: EKVX NSCLC
SNB-75 CNS = system: SNB-75 CNS
MALME-3M melanoma = system: MALME-3M melanoma
786-0 renal = system: 786-0 renal
MDA-MB-435 = system: MDA-MB-435
T-47D breast = system: T-47D breast
RXF 393 renal = system: RXF 393 renal
HOP-92 NSCLC = system: HOP-92 NSCLC
SF-268 CNS = system: SF-268 CNS
SN12C renal = system: SN12C renal
RPMI-8226 leukemia = system: RPMI-8226 leukemia
M14 melanoma = system: M14 melanoma
IGROV1 ovarian = system: IGROV1 ovarian
DU-145 prostate = system: DU-145 prostate
HOP-62 NSCLC = system: HOP-62 NSCLC
PC-3 prostate = system: PC-3 prostate
HT29 colon = system: HT29 colon
CAKI-1 renal = system: CAKI-1 renal
CCRF-CEM leukemia = system: CCRF-CEM leukemia
UACC-257 melanoma = system: UACC-257 melanoma
HS 578T breast = system: HS 578T breast
A549 NSCLC = system: A549 NSCLC
LOX IMVI melanoma = system: LOX IMVI melanoma
SK-MEL-2 melanoma = system: SK-MEL-2 melanoma
OVCAR-8 ovarian = system: OVCAR-8 ovarian
BT-549 breast = system: BT-549 breast
K-562 leukemia = system: K-562 leukemia
SK-MEL-28 melanoma = system: SK-MEL-28 melanoma
NCI-H226 lung = system: NCI-H226 lung
MOLT-4 leukemia = system: MOLT-4 leukemia
NCI-H23 lung = system: NCI-H23 lung
OVCAR-3 ovarian = system: OVCAR-3 ovarian
HL-60(TB) leukemia = system: HL-60(TB) leukemia
OVCAR-5 ovarian = system: OVCAR-5 ovarian
KM12 colon = system: KM12 colon
SW-620 colon = system: SW-620 colon
NCI-H522 lung = system: NCI-H522 lung
HCT-15 colon = system: HCT-15 colon
NCI/ADR-RES ovarian = system: NCI/ADR-RES ovarian
OVCAR-4 ovarian = system: OVCAR-4 ovarian
SNB-19 CNS = system: SNB-19 CNS
HCT-116 colon = system: HCT-116 colon
MDA-MB-231 breast = system: MDA-MB-231 breast
UO-31 renal = system: UO-31 renal
ACHN renal = system: ACHN renal
HCC-2998 colon = system: HCC-2998 colon
A498 renal = system: A498 renal
MCF7 breast = system: MCF7 breast
NCI-H460 lung = system: NCI-H460 lung
SR leukemia = system: SR leukemia

`O=S(=O)(O)c1cc(S(=O)(=O)O)c2c(N=Nc3ccc(S(=O)(=O)O)c4ccccc34)c(O)ccc2c1` was tested, and the TGI (SF-295 CNS) was greater than 100 µM, the TGI (COLO 205 colon) was greater than 100 µM and the TGI (TK-10 renal) was greater than 100 µM. It also gave a TGI (MDA-N) greater than 100 µM, a TGI (SK-OV-3 ovarian) greater than 100 µM and a TGI (U251 CNS) greater than 100 µM. For the same compound, the TGI (SK-MEL-5 melanoma) was greater than 100 µM, the TGI (UACC-62 melanoma) was greater than 100 µM and the TGI (EKVX NSCLC) was greater than 100 µM. The TGI (SNB-75 CNS) was greater than 100 µM, the TGI (MALME-3M melanoma) was greater than 100 µM and the TGI (786-0 renal) was greater than 100 µM. The TGI (MDA-MB-435) was greater than 100 µM, the TGI (T-47D breast) was greater than 100 µM and the TGI (RXF 393 renal) was greater than 100 µM. It also gave a TGI (HOP-92 NSCLC) greater than 100 µM, a TGI (SF-268 CNS) greater than 100 µM and a TGI (SN12C renal) greater than 100 µM. It also gave a TGI (RPMI-8226 leukemia) greater than 100 µM, a TGI (M14 melanoma) greater than 100 µM and a TGI (IGROV1 ovarian) greater than 100 µM. The TGI (DU-145 prostate) was greater than 100 µM, the TGI (HOP-62 NSCLC) was greater than 100 µM and the TGI (PC-3 prostate) was greater than 100 µM. The TGI (HT29 colon) was greater than 100 µM, the TGI (CAKI-1 renal) was greater than 100 µM and the TGI (CCRF-CEM leukemia) was greater than 100 µM. It also gave a TGI (UACC-257 melanoma) greater than 100 µM, a TGI (HS 578T breast) greater than 100 µM and a TGI (A549 NSCLC) greater than 100 µM. For the same compound, the TGI (LOX IMVI melanoma) was greater than 100 µM, the TGI (SK-MEL-2 melanoma) was greater than 100 µM and the TGI (OVCAR-8 ovarian) was greater than 100 µM. The TGI (BT-549 breast) was greater than 100 µM, the TGI (K-562 leukemia) was greater than 100 µM and the TGI (SK-MEL-28 melanoma) was greater than 100 µM. It also gave a TGI (NCI-H226 lung) greater than 100 µM, a TGI (MOLT-4 leukemia) greater than 100 µM and a TGI (NCI-H23 lung) greater than 100 µM. It also gave a TGI (OVCAR-3 ovarian) greater than 100 µM, a TGI (HL-60(TB) leukemia) greater than 100 µM and a TGI (OVCAR-5 ovarian) greater than 100 µM. For the same compound, the TGI (KM12 colon) was greater than 100 µM, the TGI (SW-620 colon) was greater than 100 µM and the TGI (NCI-H522 lung) was greater than 100 µM. The TGI (HCT-15 colon) was greater than 100 µM, the TGI (NCI/ADR-RES ovarian) was greater than 100 µM and the TGI (OVCAR-4 ovarian) was greater than 100 µM. The TGI (SNB-19 CNS) was greater than 100 µM, the TGI (HCT-116 colon) was greater than 100 µM and the TGI (MDA-MB-231 breast) was greater than 100 µM. The TGI (UO-31 renal) was greater than 100 µM and the TGI (ACHN renal) was greater than 100 µM.
Compound `[C-]#[N+]C(=C\c1ccc(O)cc1)/C(=C/c1ccc(O)cc1)[N+]#[C-]` has a TGI (SF-295 CNS) greater than 100 µM, a TGI (COLO 205 colon) of 56.6 µM and a TGI (TK-10 renal) greater than 100 µM. For the same compound, the TGI (MDA-N) was 3.35 µM, the TGI (SK-OV-3 ovarian) was greater than 100 µM and the TGI (U251 CNS) was greater than 23.7 µM. For the same compound, the TGI (SK-MEL-5 melanoma) was 5.36 µM, the TGI (UACC-62 melanoma) was 3.7 µM and the TGI (EKVX NSCLC) was greater than 100 µM. For the same compound, the TGI (SNB-75 CNS) was 6.83 µM, the TGI (HCC-2998 colon) was greater than 50.6 µM and the TGI (MALME-3M melanoma) was 4.39 µM. It also gave a TGI (786-0 renal) greater than 100 µM, a TGI (MDA-MB-435) greater than 19.8 µM and a TGI (T-47D breast) of 12.1 µM. The TGI (RXF 393 renal) was 4.46 µM, the TGI (HOP-92 NSCLC) was greater than 100 µM and the TGI (SF-268 CNS) was greater than 100 µM. The TGI (SN12C renal) was 6.37 µM, the TGI (RPMI-8226 leukemia) was greater than 95.2 µM and the TGI (M14 melanoma) was greater than 20.4 µM. The TGI (IGROV1 ovarian) was greater than 23.6 µM, the TGI (DU-145 prostate) was 7.23 µM and the TGI (HOP-62 NSCLC) was greater than 100 µM. The TGI (PC-3 prostate) was greater than 26.7 µM, the TGI (HT29 colon) was greater than 73.8 µM and the TGI (CAKI-1 renal) was 5.63 µM. It also gave a TGI (A498 renal) greater than 24.8 µM, a TGI (CCRF-CEM leukemia) of 6.55 µM and a TGI (UACC-257 melanoma) of 6.98 µM. It also gave a TGI (A549 NSCLC) greater than 69.9 µM, a TGI (LOX IMVI melanoma) of 5.16 µM and a TGI (MCF7 breast) greater than 36.7 µM. It also gave a TGI (OVCAR-8 ovarian) greater than 20.5 µM, a TGI (BT-549 breast) greater than 23.1 µM and a TGI (K-562 leukemia) greater than 100 µM. The TGI (SK-MEL-28 melanoma) was greater than 22.4 µM, the TGI (NCI-H226 lung) was greater than 22.7 µM and the TGI (MOLT-4 leukemia) was 7.67 µM. It also gave a TGI (NCI-H23 lung) of 5.93 µM, a TGI (OVCAR-3 ovarian) greater than 100 µM and a TGI (HL-60(TB) leukemia) greater than 24 µM. It also gave a TGI (OVCAR-5 ovarian) greater than 31.8 µM, a TGI (KM12 colon) greater than 22.3 µM and a TGI (SW-620 colon) greater than 34.3 µM. The TGI (NCI-H460 lung) was greater than 28.6 µM, the TGI (NCI-H522 lung) was greater than 33.1 µM and the TGI (HCT-15 colon) was greater than 100 µM. For the same compound, the TGI (NCI/ADR-RES ovarian) was greater than 24.5 µM, the TGI (OVCAR-4 ovarian) was greater than 100 µM and the TGI (SNB-19 CNS) was greater than 100 µM. The TGI (HCT-116 colon) was 15.8 µM, the TGI (MDA-MB-231 breast) was 6.71 µM and the TGI (ACHN renal) was greater than 100 µM. The TGI (SR leukemia) was 5.86 µM.
